Source: patent EP4656642A1, “ESTROGEN RECEPTOR PROTEOLYSIS TARGETING CHIMERA COMPOUND AND USE THEREOF” (GAN & LEE PHARM CO., LTD, priority 2023, dated 2024)

How the values were obtained:
Type in all cases: cell-based
T-47D cells = test: Inhibition of cell proliferation in T-47D cells (CCK-8, 6 days); conditions: 6 days of treatment
Outline: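 Viability read-out was CCK-8 after 6 days of compound treatment (37 °C, 5% CO2) across graded concentrations. Cells were T-47D seeded at 3,000 per well in 1640 medium plus 10% FBS. IC50 was calculated against proliferation.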

MCF-7 cells = test: Inhibition of cell proliferation of MCF-7 cells (CCK-8, 9 days)
Outline: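 Read-out was CCK-8 viability after 9-day continuous exposure (37°C, 5% CO2) of MCF-7 cells plated at 800/well in 10% FBS DMEM across several compound concentrations. Values are proliferation IC50s.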

ERα [1] = target: T1, ERα (Homo sapiens, UniProt P03372); test: Degradation of ERα in MCF-7 cells (immunoblotting, 4 h)
T1 sequence (P03372 1-595): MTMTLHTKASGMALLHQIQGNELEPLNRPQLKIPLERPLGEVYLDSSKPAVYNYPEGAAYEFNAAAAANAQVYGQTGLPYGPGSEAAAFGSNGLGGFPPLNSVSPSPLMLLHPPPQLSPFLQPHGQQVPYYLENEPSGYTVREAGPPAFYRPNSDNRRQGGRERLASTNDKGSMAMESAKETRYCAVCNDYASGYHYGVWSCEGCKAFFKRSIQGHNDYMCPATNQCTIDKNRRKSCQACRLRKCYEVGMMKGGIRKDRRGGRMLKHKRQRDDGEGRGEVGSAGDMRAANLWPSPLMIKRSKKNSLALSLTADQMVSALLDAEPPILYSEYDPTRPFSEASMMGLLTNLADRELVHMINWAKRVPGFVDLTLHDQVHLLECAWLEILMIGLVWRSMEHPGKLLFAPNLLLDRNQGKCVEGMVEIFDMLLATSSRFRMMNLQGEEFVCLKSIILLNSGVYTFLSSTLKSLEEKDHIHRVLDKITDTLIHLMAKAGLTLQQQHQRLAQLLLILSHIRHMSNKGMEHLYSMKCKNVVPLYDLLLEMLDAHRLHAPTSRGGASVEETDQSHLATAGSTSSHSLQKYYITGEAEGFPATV
Outline: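 Degradation rate reflects ERα band intensity, corrected to an internal reference protein, relative to control. Values come from Western blotting of lysates from MCF-7 cells exposed 4 h at 37°C to compounds at final concentrations of 0.15-1000nM.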

ERα [2] = target: T1, ERα; test: Degradation of ERα in T-47D cells (immunoblotting, 4 h); set-up: host or cells: T-47D
Outline: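 ERα protein levels were assessed by immunoblot of RIPA lysates (with protease inhibitor) after 4 h exposure at 37°C. Compound was added in DMSO to T-47D cells at final concentrations of 0.15-1000 nM.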

[3] = treated for 9 days, CCK-8 kit (Table 6)

SMILES | IC50 (T-47D cells; Table 3) [nM] | IC50 (MCF-7 cells; [3]) [nM] | Degradation rate (%) of ERα in MCF-7 cells (ERα [1]; 1nM compound) [%] | Degradation rate (%) of ERα in MCF-7 cells (ERα [1]; 10nM compound) [%] | Degradation rate (%) of ERα in T-47D cells (ERα [2]; 1nM compound) [%] | Degradation rate (%) of ERα in T-47D cells (ERα [2]; 10nM compound) [%] | IC50 (T-47D cells; Table 2) [nM] | IC50 (MCF-7 cells; 9 days of treatment, CCK-8, Table 5) [nM]
O=C1CCC(N2Cc3c(ccc4c3OCC43CCN(CC4CCN(C(=O)C5CCN(c6ccc([C@@H]7c8ccc(O)cc8CC[C@@H]7c7ccccc7)cc6)CC5)CC4)CC3)C2=O)C(=O)N1 (some centres unmarked) [A100] | 0.84 | 2.27 | 65 | 73 | 77 | 84 |  | 
C[C@@H]1Cc2c(ccc3[nH]ncc23)[C@@H](c2c(F)cc(N3CCC4(CCN(CC(=O)N5CCC6(CC5)COc5c6ccc6c5CN(C5CCC(=O)NC5=O)C6=O)C4)CC3)cc2F)N1CC(F)F (some centres unmarked) [C11] | 0.66 | 5970 | 60 | 69 | 56 | 68 |  | 
CCOC(=O)[C@H]1CC(N2CCC3(CC2)COc2c3ccc3c2CN(C2CCC(=O)NC2=O)C3=O)CCN1C1CC2(CCN(c3ccc([C@@H]4c5ccc(O)cc5CC[C@@H]4c4ccccc4)cc3)CC2)C1 (some centres unmarked) [A113] | 4.61 | 21.6 | 4 | 52 | 26 | 64 |  | 
C[C@@H]1Cc2c(ccc3[nH]ncc23)[C@@H](c2c(F)cc(N3CCC4(CCN(C(=O)CN5CCC6(CC5)COc5c6ccc6c5CN(C5CCC(=O)NC5=O)C6=O)C4)CC3)cc2F)N1CC(F)F (some centres unmarked) [C14] | 0.96 | 15 | 41 | 55 | 50 | 66 |  | 
O=C1CCC(N2Cc3cc4c(cc3C2=O)CCC2(CN(C(=O)CN3CCC5(CC3)CCN(c3ccc([C@@H]6c7ccc(O)cc7CC[C@@H]6c6ccccc6)cc3)CC5)C2)O4)C(=O)N1 (some centres unmarked) [A69] | 3.53 | 90.8 | 21 | 35 | 19 | 67 |  | 
O=C1CCC(N2Cc3ccc4c(c3C2=O)OCC42CCN(C3CCN(C(=O)C4(F)CCN(c5ccc([C@@H]6c7ccc(O)cc7CC[C@@H]6c6ccccc6)cc5)CC4)CC3F)CC2)C(=O)N1 (some centres unmarked) [A93] | 1.85 | 10.5 | 31 | 69 | 26 | 71 |  | 
O=C1CCC(N2Cc3cc4c(cc3C2=O)OC2(CC4)CN(C(=O)C3CCN(c4ccc([C@@H]5c6ccc(O)cc6CC[C@@H]5c5ccccc5)cc4)CC3)C2)C(=O)N1 (some centres unmarked) [A51] | 12.2 | 2920 | 5 | 15 | -10 | 3 |  | 
O=C1CCC(N2Cc3cc4c(cc3C2=O)CCC2(CN(C3CCC5(CC3)CN(c3ccc([C@@H]6c7ccc(O)cc7CC[C@@H]6c6ccccc6)cc3)C5)C2)O4)C(=O)N1 (some centres unmarked) [B10] | 3 | 37 | 3 | 23 | 5 | 46 | 6.6 | 40
O=C1CCC(N2Cc3cc4c(cc3C2=O)OC2(CC4)CN(C(=O)[C@H]3CC[C@H](CN4CCN(c5ccc([C@@H]6c7ccc(O)cc7CC[C@@H]6c6ccccc6)cc5)CC4)CC3)C2)C(=O)N1 (some centres unmarked) [C8] | 0.99 | 2730 | 29 | 40 | 60 | 78 |  | 
C[C@@H]1Cc2c(ccc3[nH]ncc23)[C@@H](c2c(F)cc(N3CCC4(CCN(C(=O)CN5CCC6(CC5)COc5c6ccc6c5CN(C5CCC(=O)NC5=O)C6=O)CC4)CC3)cc2F)N1CC(F)F (some centres unmarked) [C13] | 0.61 | 3.24 | 41 | 62 | 46 | 70 |  | 
N#CC1(CN2CCC3(CC2)COc2c3ccc3c2CN(C2CCC(=O)NC2=O)C3=O)CCN(C(=O)C2CCN(c3ccc([C@@H]4c5ccc(O)cc5CC[C@@H]4c4ccccc4)cc3)CC2)CC1 (some centres unmarked) [A108] | 1.8 | 7390 | 22 | 46 | 41 | 73 |  | 
O=C1CCC(N2Cc3c(ccc4c3OC3(CC4)CCN(C4CCN(C5CN(c6ccc([C@@H]7c8ccc(O)cc8CC[C@@H]7c7ccccc7)cc6)C5)CC4)CC3)C2=O)C(=O)N1 (some centres unmarked) [A60] | 18.3 | 825 | -31 | -14 | 11 | -1 |  | 

Further lines, results first:

IC50 (T-47D cells; Table 3) [nM] | IC50 (MCF-7 cells; [3]) [nM] | Degradation rate (%) of ERα in MCF-7 cells (ERα [1]; 1nM compound) [%] | Degradation rate (%) of ERα in MCF-7 cells (ERα [1]; 10nM compound) [%] | Degradation rate (%) of ERα in T-47D cells (ERα [2]; 1nM compound) [%] | Degradation rate (%) of ERα in T-47D cells (ERα [2]; 10nM compound) [%] | IC50 (T-47D cells; Table 2) [nM] | IC50 (MCF-7 cells; 9 days of treatment, CCK-8, Table 5) [nM] | SMILES
1.01 | 8.41 | 36 | 65 | 62 | 83 |  |  | C[C@@H]1C[C@H](N2CCC3(CC2)COc2c3ccc3c2CN(C2CCC(=O)NC2=O)C3=O)CCN1C(=O)C1CCN(c2ccc([C@@H]3c4ccc(O)cc4CC[C@@H]3c3ccccc3)cc2)CC1 (some centres unmarked) [H28]
6 | 48 | -23 | -24 | -15 | 13 |  |  | O=C1CCC(N2Cc3cc4c(cc3C2=O)CCC2(CN(CC3CCC5(CC3)CN(c3ccc([C@@H]6c7ccc(O)cc7CC[C@@H]6c6ccccc6)cc3)C5)C2)O4)C(=O)N1 (some centres unmarked) [M15]
10.4 | 103 | 14 | 43 | 20 | 57 |  |  | O=C1CCC(N2Cc3c(ccc4c3OCC43CCN(C4CCC5(CC4)CCN(c4ccc(C6=C(c7ccc(Cl)cc7Cl)CCCc7cc(C(=O)O)ccc76)cc4)CC5)CC3)C2=O)C(=O)N1 (centres unmarked) [F11]
25.1 | 8.6 | 45 | 57 | 34 | 63 |  |  | C[C@@H]1Cc2c(ccc3[nH]ncc23)C(c2c(F)cc(N3CC4(CCC(N5CCC6(CC5)COc5c6ccc6c5CN(C5CCC(=O)NC5=O)C6=O)CC4)C3)cc2F)N1CC(F)F (some centres unmarked) [G21]
4.92 | 195 | -4 | 1 | 30 | 70 |  |  | CN(CC1CCN(c2ccc([C@@H]3c4ccc(O)cc4CC[C@@H]3c3ccccc3)cc2)CC1)[C@H]1CC[C@H](C(=O)N2CCC3(CC2)COc2c3ccc3c2CN(C2CCC(=O)NC2=O)C3=O)CC1 (some centres unmarked) [N3]
